According to ChEMBL document CHEMBL3046204, “Protective effect of Centaurea pallescens Del. against CCl4-induced injury on a human hepatoma cell line (Huh7)” (2013):
Calls of active or inactive are those of the source. No cut-off for these calls is given here.

Key:
[1] = tested on: Huh-7; experiment: Hepatoprotective activity against CCL4-induced toxicity in human HuH7 cells assessed as increase in GSH level at 10 to 1000 ug/ml incubated for 1 hr prior to CCL4-challenge measured after 2 hrs relative to control; type: functional, cell-based
[2] = tested on: Huh-7; experiment: Hepatoprotective activity against CCL4-induced toxicity in human HuH7 cells assessed as increase in superoxide dismutase activity at 10 to 1000 ug/ml incubated for 1 hr prior to CCL4-challenge measured after 2 hrs relative to control; type: functional, cell-based
[3] = tested on: Huh-7; experiment: Hepatoprotective activity against CCL4-induced toxicity in human HuH7 cells assessed as superoxide dismutase activity at 100 ug/ml incubated for 1 hr prior to CCL4-challenge measured after 2 hrs (reference value: 168.4 +/- 24.9 U/ml); type: functional
[4] = tested on: Huh-7; experiment: Hepatoprotective activity against CCL4-induced toxicity in human HuH7 cells assessed as decrease in alanine transaminase level at 10 to 1000 ug/ml incubated for 1 hr prior to CCL4-challenge measured after 2 hrs relative to control; type: functional, cell-based
[5] = tested on: Huh-7; experiment: Hepatoprotective activity against CCL4-induced toxicity in human HuH7 cells assessed as decrease in aspartate aminotransferase level at 10 to 1000 ug/ml incubated for 1 hr prior to CCL4-challenge measured after 2 hrs relative to control; type: functional, cell-based
[6] = tested on: Huh-7; experiment: Hepatoprotective activity against CCL4-induced toxicity in human HuH7 cells assessed as alanine transaminase level at 100 ug/ml incubated for 1 hr prior to CCL4-challenge measured after 2 hrs (reference value: 21.5 +/- 3.7 U/ml); type: functional
[7] = tested on: Huh-7; experiment: Hepatoprotective activity against CCL4-induced toxicity in human HuH7 cells assessed as aspartate aminotransferase level at 10 ug/ml incubated for 1 hr prior to CCL4-challenge measured after 2 hrs (reference value: 38.9 +/- 7.9 U/ml); type: functional

## COc1ccc(-c2oc3cc(O[C@@H]4O[C@@H](C)[C@H](OC(=O)/C=C/c5ccc(O)cc5)[C@@H](O)[C@H]4O)cc(O)c3c(=O)c2O[C@@H]2O[C@H](CO)[C@@H](O)[C@H](O[C@@H]3O[C@@H](C)[C@H](O)[C@@H](O)[C@H]3O)[C@H]2OC(=O)/C=C/c2ccc(O)cc2)cc1
[1]
  Activity: Active
[2]
  Activity: Active
[3]
  Activity: 264.6 U/ml
[4]
  Activity: Active
[5]
  Activity: Active
[6]
  Activity: 18.6 U/ml

## O=c1c(OC2O[C@H](CO)[C@@H](O)[C@H](O)[C@H]2O)c(-c2cc(O)c(O)c(O)c2)oc2cc(O)cc(O)c12 (stereo not given in full) [MYRICETIN 3-O-GLUCOSIDE]
[1]
  Activity: Active
[2]
  Activity: Active
[4]
  Activity: Active
[5]
  Activity: Active
[7]
  Activity: 5.8 U/ml

## O=c1c(O[C@@H]2O[C@H](CO)[C@@H](O)[C@H](O)[C@H]2O)c(-c2ccc(O)c(O)c2)oc2cc(O)cc(O)c12
[1]
  Activity: Active
[2]
  Activity: Active
[4]
  Activity: Active
[5]
  Activity: Active
